Here are results for one molecule from ChEMBL document CHEMBL5512688 (J Med Chem, 2024).

SMILES strings stand for the structures. pIC50: −log10 of the molar value.

Broadly, the half-life is the time in which the quantity being followed falls by half. Low readings indicate rapid decline, high ones slow decline. By AUC(0-t) is commonly meant exposure summed from dosing to a finite time, without extrapolation to infinity. Low values mean low exposure, high ones high exposure. One may read the pIC50 as −log10 of the IC50, conventionally taken in molar units. As a reminder, the bioavailability is the share of a dose that reaches the circulation, judged against a reference dose that is usually intravenous. As usually defined, the inhibition is the drop in the measured response relative to a control, in per cent.

Data set [1] has as its system A-427. Kind of data set: Induction of apoptosis in human A-427 cells assessed as late apoptotic cells at 200 nM measured for 48 hrs by Annexin V/PI double staining based flow cytometry analysis (reference value: 0.21%). The class given is functional. On the technique in general: A flow cytometer gives signals particle by particle.
The nature of data set [2]: Half life in ICR mouse at 1 mg/kg, iv measured upto 24 hrs by LC-MS/MS analysis. The class given is ADME, organism-based. As to conditions: in vivo.
The nature of data set [3]: AUC (0 to 24 hrs) in ICR mouse at 1 mg/kg, iv measured upto 24 hrs by LC-MS/MS analysis. The format is ADME, organism-based. As to conditions: in vivo.
The next data set concerns LoVo. Kind of data set: Antiproliferative activity against human LoVo cells assessed as inhibition of cell growth incubated for 72 hrs by CCK-8 method. The format is functional, cell-based.
Data set [4] can be described thus: Bioavailability in ICR mouse at 60 mg/kg, IG measured upto 24 hrs by LC-MS/MS analysis. The class given is ADME, organism-based. To be noted: in vivo, po.
Data set [5] relates to A-427. Kind of data set: Induction of cell cycle arrest in human A-427 cells assessed as accumulation of cells at G2/M phase at 200 nM measured for 48 hrs by flow cytometry analysis (reference value: 10.9 %). The format is functional.
Data set [6] is described as follows: Half life in ICR mouse at 60 mg/kg, IG measured upto 24 hrs by LC-MS/MS analysis. The format is ADME, organism-based. To be noted: in vivo, po.
Data set [7] deals with T1, Wee1-like protein kinase (Homo sapiens, UniProt P30291). Kind of data set: Inhibition of Wee1 in human U2OS cells assessed as reduction in CDK1 phosphorylation measured for 1 hr by Western blot analysis. The format is cell-based. On the technique in general: A western blot detects proteins with antibodies after separation by electrophoresis.
Target sequence in this assay (P30291 whole entry): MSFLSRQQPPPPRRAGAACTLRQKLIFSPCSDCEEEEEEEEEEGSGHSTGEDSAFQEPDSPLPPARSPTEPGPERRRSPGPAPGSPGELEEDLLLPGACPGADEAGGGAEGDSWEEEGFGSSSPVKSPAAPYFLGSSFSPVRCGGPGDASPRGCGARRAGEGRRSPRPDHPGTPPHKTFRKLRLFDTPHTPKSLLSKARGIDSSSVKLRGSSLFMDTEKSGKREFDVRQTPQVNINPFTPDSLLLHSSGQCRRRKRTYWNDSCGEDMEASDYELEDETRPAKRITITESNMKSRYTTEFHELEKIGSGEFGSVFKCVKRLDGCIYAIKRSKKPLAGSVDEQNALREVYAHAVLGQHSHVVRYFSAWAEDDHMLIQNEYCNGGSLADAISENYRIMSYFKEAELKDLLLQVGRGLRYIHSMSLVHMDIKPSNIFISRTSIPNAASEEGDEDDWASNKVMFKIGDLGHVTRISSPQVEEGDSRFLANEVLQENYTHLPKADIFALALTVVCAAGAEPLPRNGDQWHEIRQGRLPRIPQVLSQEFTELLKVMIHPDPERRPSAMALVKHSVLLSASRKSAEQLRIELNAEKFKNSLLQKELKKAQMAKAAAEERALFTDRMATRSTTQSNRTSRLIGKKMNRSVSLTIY
Data set [8] deals with A-427. Kind of data set: Induction of apoptosis in human A-427 cells assessed as early apoptotic cells at 400 nM measured for 48 hrs by Annexin V/PI double staining based flow cytometry analysis (reference value: 1.96%). The class given is functional.
The test system of data set [9] is A-427. Kind of data set: Induction of cell cycle arrest in human A-427 cells assessed as accumulation of cells at G0/G1 phase at 50 nM measured for 48 hrs by flow cytometry analysis (reference value: 49.5%). The class given is functional.
Data set [10] concerns A-427. Kind of data set: Induction of apoptosis in human A-427 cells assessed as necrotic cells at 400 nM measured for 48 hrs by Annexin V/PI double staining based flow cytometry analysis (reference value: 0.098%). The class given is functional.
The nature of data set [11]: Acute toxicity in female C57 mouse assessed as reduction in body weight at 2000 mg/kg, IG measured for 14 days. As to conditions: in vivo, po, 336 h, time 14 day. The class given is organism-based.
Data set [12] deals with A-427. Kind of data set: Induction of cell cycle arrest in human A-427 cells assessed as accumulation of cells at S phase at 400 nM measured for 48 hrs by flow cytometry analysis (reference value: 4 %). The class given is functional.
For data set [13], the target named is T2, Mitogen-activated protein kinase kinase kinase 19 (Homo sapiens) (UniProt Q56UN5).
T2 sequence (whole entry): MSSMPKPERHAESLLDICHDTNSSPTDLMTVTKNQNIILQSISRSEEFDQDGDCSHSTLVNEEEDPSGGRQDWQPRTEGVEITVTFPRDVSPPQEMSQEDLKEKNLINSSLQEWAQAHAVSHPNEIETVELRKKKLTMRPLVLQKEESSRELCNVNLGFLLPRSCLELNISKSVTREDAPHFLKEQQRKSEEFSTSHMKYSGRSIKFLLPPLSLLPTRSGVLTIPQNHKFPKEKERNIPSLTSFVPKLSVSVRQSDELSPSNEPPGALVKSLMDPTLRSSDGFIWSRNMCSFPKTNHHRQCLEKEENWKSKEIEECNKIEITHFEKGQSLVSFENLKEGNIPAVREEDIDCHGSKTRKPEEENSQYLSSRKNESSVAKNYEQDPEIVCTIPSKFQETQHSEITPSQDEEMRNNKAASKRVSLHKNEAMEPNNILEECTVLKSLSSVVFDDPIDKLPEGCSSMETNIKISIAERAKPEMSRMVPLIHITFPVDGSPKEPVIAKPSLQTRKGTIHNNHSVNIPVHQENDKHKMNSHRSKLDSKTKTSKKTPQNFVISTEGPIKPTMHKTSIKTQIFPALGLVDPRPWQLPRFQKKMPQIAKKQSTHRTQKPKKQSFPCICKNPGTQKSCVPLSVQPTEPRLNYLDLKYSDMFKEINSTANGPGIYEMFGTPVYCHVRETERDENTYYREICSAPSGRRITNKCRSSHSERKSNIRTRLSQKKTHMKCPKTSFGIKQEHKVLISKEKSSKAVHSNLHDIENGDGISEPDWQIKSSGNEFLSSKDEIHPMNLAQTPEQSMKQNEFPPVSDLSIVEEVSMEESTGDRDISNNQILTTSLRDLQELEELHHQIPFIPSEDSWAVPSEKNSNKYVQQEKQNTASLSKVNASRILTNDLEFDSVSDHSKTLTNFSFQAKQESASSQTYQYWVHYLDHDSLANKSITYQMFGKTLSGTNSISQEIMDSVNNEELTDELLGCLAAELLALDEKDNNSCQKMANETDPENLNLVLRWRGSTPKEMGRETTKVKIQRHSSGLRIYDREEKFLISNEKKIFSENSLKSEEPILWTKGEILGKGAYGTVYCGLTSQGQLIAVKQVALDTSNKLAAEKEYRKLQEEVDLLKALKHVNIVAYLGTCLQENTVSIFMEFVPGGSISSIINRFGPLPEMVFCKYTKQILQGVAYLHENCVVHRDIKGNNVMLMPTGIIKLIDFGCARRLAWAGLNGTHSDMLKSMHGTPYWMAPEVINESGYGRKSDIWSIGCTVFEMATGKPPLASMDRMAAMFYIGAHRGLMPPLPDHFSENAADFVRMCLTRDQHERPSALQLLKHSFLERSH
Kind of data set: Inhibition of MAP3K19 (unknown origin) at 1 uM relative to control.

For data set [14], the system named is A-427. Kind of data set: Induction of apoptosis in human A-427 cells assessed as viable cells at 400 nM measured for 48 hrs by Annexin V/PI double staining based flow cytometry analysis (reference value: 97.7%). The class given is functional. To be noted: read-out: Activity.
Data set [15] deals with A-427. Kind of data set: Induction of cell cycle arrest in human A-427 cells assessed as accumulation of cells at S phase at 50 nM measured for 48 hrs by flow cytometry analysis (reference value: 4 %). The class given is functional.
The subject of data set [16] is A-427. Kind of data set: Induction of cell cycle arrest in human A-427 cells assessed as accumulation of cells at S phase at 200 nM measured for 48 hrs by flow cytometry analysis (reference value: 4 %). The format is functional.
The target in data set [17] is T1, Wee1-like protein kinase. Kind of data set: Inhibition of Wee1 (unknown origin) at 1 uM relative to control.
Target sequence in this assay (P30291 whole entry, looked up): as the sequence (P30291 whole entry) above

As for `C=CCn1c(=O)c2cnc(Nc3ccc(N4CCN(C)CC4)cc3)nc2n1-c1cccc(-c2cnccn2)n1`, the Activity in the data set on A-427 [1] is listed as 25.6%; with A-427 [5], 6.58%; in the data set on A-427 [8] it was 10.1%; in the data set on A-427 [9], 40.9%; in the data set with A-427 [10], 2.33%; in data set [11], “Non-Toxic”. Moreover, the Activity with A-427 [12] came to 59.1%; in the data set with A-427 [15], 46.7%; in the data set with A-427 [16], 59.1%. The half-life in data set [2] was 1.06 h; in data set [6] it was 5.94 h. Besides, the AUC(0-t) at 24 h in data set [3] was found to be 118 ng·h/mL. Also, the values for the pIC50 in the data set with LoVo and at Wee1-like protein kinase [7] were 7.09 and 6.37, respectively. For the same molecule, the bioavailability in data set [4] is 61.5%. In addition, the inhibition in [13] was more than 90%; against Wee1-like protein kinase [17], 111%. Also, in the data set with A-427 [14], the viability at 0.4 µM amounted to 58.3%.
